Earlier results in US20250099590A1, “HIGH DENSITY ULTRASOUND COUPLING GEL AND METHODS OF USE THEREOF” (ZetrOZ Systems LLC, priority 2023, published 2025).

Experiments:
[1] = system: osteoarthritis-induced pain; details: SAM treatment with 1% topical diclofenac, after 7 days
musculoskeletal injuries = details: SAM with 2.5% diclofenac, after 4-weeks of daily home-use

O=C(O)Cc1ccccc1Nc1c(Cl)cccc1Cl [diclofenac]
Western Ontario McMaster Outcome (WOMAC) [1]: improved | osteoarthritis-induced pain [1]: significantly alleviated | global health and function (musculoskeletal injuries): global health and functional improvement | pain (musculoskeletal injuries): significant pain reduction
